Measurements: patent US11498920B2, “4-(1H-imidazol-5-yl)-1H-pyrrolo[2, 3-b] pyridines for use in the treatment of leukaemias, lymphomas and solid tumors” (MASARYKOVA UNIVERZITA, priority 2018, dated 2022)
“Also recorded” adds a separate entry of the source. Like-named read-outs stand apart in the source and are kept apart here.

Experiments:
primary CLL cells [1] = experiment: Specificity of cytotoxic activity, TMRE viability, primary CLL cells (Example II.4); settings: for dose-dependent cytotoxic effect / apoptosis of primary CLL cells (FIG. 1): 6 h, indicated doses of inhibitors; for selective toxicity towards cancer cells vs nonmalignant controls (FIG. 4, Table 3): primary CLL cells vs healthy cells
[2] = Specificity of cytotoxic activity, TMRE viability, primary nonmalignant control cells (Example II.4); format: cell-based; settings: human, N = 4, read-out: Viability - mean % of control, Primary healthy cells
Maver1 = experiment: Cytotoxicity on panel of cell lines, TMRE viability (Example II.2); format: cell-based; settings: Homo sapiens, 24 hours, mean, control = 1, read-out: cell viability relative to control, Maver1 (MCL)
Method: (§1) The leukemia and lymphoma-derived cell lines [MEC-1 cell line (derived from chronic lymphocytic leukemia—CLL), Nalm-16 (acute lymphocytic leukemia—ALL), K562 (chronic myeloid leukemia—CML), HL-60 (acute myeloid leukemia—AML), Maver-1 and Mino (mantle cell lymphoma—MCL), BL-41 (Burkitt lymphoma—BL), WSU-NHL (follicular lymphoma—FL), SUDHL (diffuse large B-cell lymphoma—DLBCL)], primary CLL cells and nonmalignant control primary cells were cultured in suspension in flasks under the following conditions: RPMI 1640 medium (Hyclone) supplemented with 10% fetal bovine serum (FBS, Gibco) and 1% penicillin/streptomycin (Life Technologies), 37° C., 5% CO2 and 95% relative humidity, with optimal culture cell density 5×10^6 cells/mL in case of primary cells and 0.5-1×10^6 cells/mL in case of cell lines. The adherent cell lines [A375 (derived from malignant melanoma), MDA-MB-231 and MCF-7 (breast cancer), MIA-PA-CA and PANC1 (pancreatic cancer), PC3 (prostate cancer), OVCAR4 (ovarian cancer) and HEPG2 (hepatocellular carcinoma)] were cultured on plates under the same conditions using RPMI1640 or DMEM medium (Gibco) according to instructions provided by the distributor (DSMZ/ATCC).
(§2) The tested cell lines were incubated with inhibitors at 30 μM concentration or corresponding amount of solvent (DMSO, Sigma Aldrich) in standard culture conditions, seeded as 10^5 cells/500 μl per well in a 24-well plate. Experiments were performed in technical duplicates and 2-3 biological repetitions per cell line. Viability of cells was assessed after 24 hours.
(§3) Relative values are presented as a mean value, showing ratio to the effect of control. Relative value <1=lower viability than control condition.

MDA-MB-231 = experiment: as above; format: cell-based; settings: Homo sapiens, 24 hours, mean, control = 1, read-out: cell viability relative to control, MDA-MB-231 (breast cancer)
Method: as §1, §2, §3

HEPG2 = experiment: as above; format: cell-based; settings: Homo sapiens, 24 hours, mean, control = 1, read-out: cell viability relative to control, HEPG2 (hepatocellular carcinoma)
Method: as §1, §2, §3

HL60 = experiment: as above; format: cell-based; settings: Homo sapiens, HL-60, 24 hours, mean, control = 1, read-out: cell viability relative to control, HL60 (AML)
Method: as §1, §2, §3

PANC1 = experiment: as above; format: cell-based; settings: Homo sapiens, PANC-1, 24 hours, mean, control = 1, read-out: cell viability relative to control, PANC1 (pancreatic cancer)
Method: as §1, §2, §3

MEC-1 = experiment: as above; format: cell-based; settings: Homo sapiens, MEC1, 24 hours, mean, control = 1, read-out: cell viability relative to control, MEC-1 (CLL)
Method: as §1, §2, §3

BL-41 = experiment: as above; format: cell-based; settings: Homo sapiens, 24 hours, mean, control = 1, read-out: cell viability relative to control, BL-41 (BL)
Method: as §1, §2, §3

SUDHL = experiment: as above; format: cell-based; settings: 24 hours, mean, control = 1, read-out: cell viability relative to control, SUDHL (DLBCL)
Method: as §1, §2, §3

MCF-7 = experiment: as above; format: cell-based; settings: Homo sapiens, MCF7, 24 hours, mean, control = 1, read-out: cell viability relative to control, MCF-7 (breast cancer)
Method: as §1, §2, §3

A375 = experiment: as above; format: cell-based; settings: Homo sapiens, A-375, 24 hours, mean, control = 1, read-out: cell viability relative to control, A375 (melanoma)
Method: as §1, §2, §3

PC3 = experiment: as above; format: cell-based; settings: Homo sapiens, PC-3, 24 hours, mean, control = 1, read-out: cell viability relative to control, PC3 (prostate cancer)
Method: as §1, §2, §3

WSU-NHL = experiment: as above; format: cell-based; settings: Homo sapiens, 24 hours, mean, control = 1, read-out: cell viability relative to control, WSU-NHL (FL)
Method: as §1, §2, §3

OVCAR4 = experiment: as above; format: cell-based; settings: Homo sapiens, OVCAR-4, 24 hours, mean, control = 1, read-out: cell viability relative to control, OVCAR4 (ovarian cancer)
Method: as §1, §2, §3

Mino = experiment: as above; format: cell-based; settings: Homo sapiens, 24 hours, mean, control = 1, read-out: cell viability relative to control, Mino (MCL)
Method: as §1, §2, §3

K562 = experiment: as above; format: cell-based; settings: Homo sapiens, 24 hours, mean, control = 1, read-out: cell viability relative to control, K562 (CML)
Method: as §1, §2, §3

Nalm16 = experiment: as above; format: cell-based; settings: 24 hours, mean, control = 1, read-out: cell viability relative to control, Nalm16 (ALL)
Method: as §1, §2, §3

MIA-PA-CA = experiment: as above; format: cell-based; settings: Homo sapiens, MIA PaCa-2, 24 hours, mean, control = 1, read-out: cell viability relative to control, MIA-PA-CA (pancreatic cancer)
Method: as §1, §2, §3

primary CLL = experiment: as above; format: cell-based; settings: Homo sapiens, 24 hours, mean, control = 1, read-out: cell viability relative to control, primary CLL
Method: as §1, §2, §3

[3] = system: Maver-1 cells (mantle cell lymphoma); experiment: Cytotoxicity, TMRE flow cytometry viability, Maver-1 cells (Example II.1); format: cell-based; settings: Homo sapiens, Maver1, 24 hours, TMRE positive cells normalized to control, ratio to PF670462, <1 = higher cytotoxicity than PF670462, read-out: Viability of cells, Compound of formula I (100 μM), relative to PF670462 (100 μM), Maver-1 cells (mantle cell lymphoma)
primary CLL cells [4] = settings: human, 6 h, 30 µM
primary CLL cells [5] = experiment: Cytotoxicity, TMRE flow cytometry viability, primary CLL cells (Example II.1); format: cell-based; settings: Homo sapiens, CLL cell, 6 hours, TMRE positive cells normalized to control, ratio to PF670462, <1 = higher cytotoxicity than PF670462, read-out: Viability of cells, Compound of formula I (100 μM), relative to PF670462 (100 μM), CLL primary cells
primary CLL cells [6] = experiment: Induction of apoptosis, western blotting of cleaved PARP in primary CLL cells; format: cell-based, human; settings: 10 μM, overnight, listed as preparatory example 3

| Compound | viability at 30 µM (Maver1) [%] | viability at 30 µM (MDA-MB-231) [%] | viability at 30 µM (HEPG2) [%] | viability at 30 µM (HL60) [%] | viability at 30 µM (PANC1) [%] | viability at 30 µM (MEC-1) [%] | viability at 30 µM (BL-41) [%] | viability at 30 µM (SUDHL) [%] | viability at 30 µM (MCF-7) [%] | viability at 30 µM (A375) [%] | viability at 30 µM (PC3) [%] | viability at 30 µM (WSU-NHL) [%] | viability at 30 µM (OVCAR4) [%] | viability at 30 µM (Mino) [%] | viability at 30 µM (K562) [%] | viability at 30 µM (Nalm16) [%] | viability at 30 µM (MIA-PA-CA) [%] | viability at 30 µM (primary CLL) [%] | viability at 100 µM [3] [%] | viability at 100 µM (primary CLL cells [5]) [%] | also measured |
| --- | --- | --- | --- | --- | --- | --- | --- | --- | --- | --- | --- | --- | --- | --- | --- | --- | --- | --- | --- | --- | --- |
| Nc1nccc(-c2c(-c3ccc(F)cc3)ncn2C2CCCCC2)n1 [PF670462, reference compound] | 85 | 99 | 78 | 98 | 93 | 92 | 82 | 93 | 55 | 94 | 115 | 110 | 95 | 84 | 97 | 94 | 104 | 103 | 100 | 100 | induction of apoptosis in primary CLL cells or nonmalignant control (healthy) cells (primary CLL cells [1]; 30 μM, 6 hours): not able to induce apoptosis; dose-dependent cytotoxic effect / apoptosis of primary CLL cells (FIG. 1) (primary CLL cells [1]): lacks this effect; viability at 6 h, 30 µM [2]: 95.5%; Viability - mean % of control, Primary CLL (primary CLL cells [4]): 98.3% (N = 8) |
| Fc1ccc(-c2ncn(C3CCCCC3)c2-c2ccnc3[nH]ccc23)cc1 [Preparative Example 3, 4-(1-cyclohexyl-4-(4-fluorophenyl)-1H-imidazol-5-yl)-1H-pyrrolo[2,3-b]pyridine] | 54 | 69 | 47 | 72 | 65 | 43 | 17 | 18 | 53 | 64 |  |  | 73 | 38 | 81 | 32 | 61 | 69 | 27 | 30 | Viability - mean % of control, Primary CLL (primary CLL cells [1]; 30 μM, 6 hours, N = 8): 37.3% (N = 8); selective toxicity towards cancer cells vs nonmalignant controls (FIG. 4, Table 3) (primary CLL cells [1]; 30 μM, 6 hours): significantly higher cytotoxic effects towards cancer cells than nonmalignant controls; selective toxicity towards cancer cells vs nonmalignant controls (FIG. 4, Table 3) (primary CLL cells [1]; 30 μM, 6 hours, listed as prep. example 3): selective towards cancer cells; dose-dependent cytotoxic effect / apoptosis of primary CLL cells (FIG. 1) (primary CLL cells [1]; listed as preparatory example 3): induced dose-dependently; viability at 6 h, 30 µM [2]: 80.9%; cleaved PARP, marker of apoptosis (FIG. 2) (primary CLL cells [6]): Increased PARP cleavage; also recorded: increase of cleaved PARP |
| Cc1cc2c(-c3c(-c4ccc(F)cc4)ncn3C3CCCCC3)ccnc2[nH]1 [Preparative Example 39, 4-(1-cyclohexyl-4-(4-fluorophenyl)-1H-imidazol-5-yl)-2-methyl-1H-pyrrolo[2,3-b]pyridine] | 2 | 71 | 55 | 62 | 44 | 22 | 10 | 24 |  | 16 | 29 | 88 | 42 | 26 | 73 | 6 | 56 | 48 | 2 | 10 |  |
| Cc1nc(-c2ccc(F)cc2)c(-c2ccnc3[nH]ccc23)n1C1CCCCC1 [Preparative Example 61, 4-(1-cyclohexyl-4-(4-fluorophenyl)-2-methyl-1H-imidazol-5-yl)-1H-pyrrolo[2,3-b]pyridine] | 52 | 46 | 60 | 63 | 81 | 41 | 22 | 24 | 39 | 20 | 71 |  | 77 | 28 | 80 | 6 | 58 | 70 | 2 | 35 |  |
| Fc1ccc(-c2nc(I)n(C3CCCCC3)c2-c2ccnc3[nH]ccc23)cc1 [Preparative Example 95, 4-(1-cyclohexyl-4-(4-fluorophenyl)-2-iodo-1H-imidazol-5-yl)-1H-pyrrolo[2,3-b]pyridine] | 1 | 2 | 5 | 2 | 10 | 0 | 0 | 0 | 1 | 16 | 1 | 0 | 7 | 0 | 1 |  | 1 | 2 | 1 | 2 |  |
| Fc1ccc(-c2ncn(Cc3ccccc3)c2-c2ccnc3[nH]ccc23)cc1Cl [Preparative Example 140, 4-(1-benzyl-4-(3-chloro-4-fluorophenyl)-1H-imidazol-5-yl)-1H-pyrrolo[2,3-b]pyridine] | 7 | 86 | 22 | 78 | 77 | 67 | 44 | 11 | 43 | 80 | 67 | 56 | 87 | 3 |  |  | 29 | 60 | 0 | 1 |  |
